Like-named read-outs stand apart in the source and are kept apart here.
Columns and labels:
[1] = system: MV4-11 tumors; assay: MV4-11 rat subcutaneous xenograft; format: in vivo
Experimental: Female C.B.-17 SCID mice and female nude rats were purchased from Charles River Laboratories. […]. All xenograft studies were conducted at our Association for the Assessment and Accreditation of Laboratory Animal Care accredited facility in Waltham, MA in accordance with ethical regulations described in the guidelines established by the internal Institutional Animal Care and Use Committee. […]. In mice, drugs were dosed intravenously in a volume of 5 mL kg^-1 except for venetoclax that was dosed orally in a volume of 10 mL kg^-1. […]. Ten million MV4-11 cells were injected subcutaneously in the right flank of rats in a volume of 0.1 mL. Tumor volumes (measured by caliper), animal body weight, and tumor condition were recorded twice weekly for the duration of the study. The tumor volume was calculated using the formula: length (mm) × width (mm)^2/0.52. For efficacy studies, growth inhibition from the start of treatment was assessed by comparison of the differences in tumor volume between control and treated groups. Statistical significance was evaluated using non-parametric, unpaired, two-tailed t-test. […] For pharmacokinetic analysis, plasma samples were precipitated and diluted with acetonitrile containing internal standard and analyzed by LC–MS/MS versus a calibration curve of known concentrations.

[2] = system: Kasumi1; assay: Cell viability assay; format: cell-based; conditions: Homo sapiens, Kasumi 1, 24 h; Kasumi1 (AML); read-out: AZD5991 24h GI50
Experimental: (§1) Cells were plated at 3000 cells/well in 384-well white plates in corresponding cell growth media. […] Caspase-3/7 activation was subsequently determined using a Caspase-Glo 3/7 Reagent (Promega) and viability was assayed using the CellTiter-Glo Reagent (Promega) as described in manufacturer’s instructions. Dose–response curves for caspase-3/7 activation and viability were plotted and analyzed (including EC50 and GI50 determination) using GraphPad Prism.

[3] = system: OCIAML3; assay: Cell viability assay; format: cell-based; conditions: Homo sapiens, OCI-AML-3, 24 h, read-out: AZD5991 24h GI50
Experimental: as §1

[4] = system: OCIM1; assay: Cell viability assay; format: cell-based; conditions: OCI-M1, 24 h; OCIM1 (AML); read-out: AZD5991 24h GI50
Experimental: as §1

[5] = system: Daudi; assay: Cell viability assay; format: cell-based; conditions: Homo sapiens, 24 h; Daudi (NHL); read-out: AZD5991 24h GI50
Experimental: as §1

[6] = system: MAVER1; assay: Cell viability assay; format: cell-based; conditions: Homo sapiens, 24 h; MAVER1 (NHL); read-out: AZD5991 24h GI50
Experimental: as §1

[7] = system: Namalwa; assay: Cell viability assay; format: cell-based; conditions: 24 h; Namalwa (NHL); read-out: AZD5991 24h GI50
Experimental: as §1

[8] = system: OCILY1; assay: Cell viability assay; format: cell-based; conditions: Homo sapiens, OCI-Ly1, 24 h; OCILY1 (NHL); read-out: AZD5991 24h GI50
Experimental: as §1

[9] = system: Ramos; assay: Cell viability assay; format: cell-based; conditions: Homo sapiens, 24 h; Ramos (NHL); read-out: AZD5991 24h GI50
Experimental: as §1

[10] = system: Sudhl8; assay: Cell viability assay; format: cell-based; conditions: Homo sapiens, SU-DHL-8, 24 h; Sudhl8 (NHL); read-out: AZD5991 24h GI50
Experimental: as §1

[11] = system: Z-138; assay: Cell viability assay; format: cell-based; conditions: Homo sapiens, 24 h; Z-138 (NHL); read-out: AZD5991 24h GI50
Experimental: as §1

[12] = system: H1568; assay: Cell viability assay; format: cell-based; conditions: NCI-H1568, 24 h; H1568 (Lung); read-out: AZD5991 24h GI50
Experimental: as §1

[13] = system: H358; assay: Cell viability assay; format: cell-based; conditions: Homo sapiens, NCI-H358, 24 h; H358 (Lung); read-out: AZD5991 24h GI50
Experimental: as §1

[14] = system: BT549; assay: Cell viability assay; format: cell-based; conditions: Homo sapiens, BT-549, 24 h; BT549 (Breast); read-out: AZD5991 24h GI50
Experimental: as §1

[15] = system: ZR751; assay: Cell viability assay; format: cell-based; conditions: Homo sapiens, ZR-75-1, 24 h; ZR751 (Breast); read-out: AZD5991 24h GI50
Experimental: as §1

[16] = system: A375; assay: Cell viability assay; format: cell-based; conditions: Homo sapiens, A-375, 24 h; A375 (Skin); read-out: AZD5991 24h GI50
Experimental: as §1

[17] = system: 647V; assay: Cell viability assay; format: cell-based; conditions: Homo sapiens, 24 h; 647V (Urology); read-out: AZD5991 24h GI50
Experimental: as §1

[18] = system: A253; assay: Cell viability assay; format: cell-based; conditions: Homo sapiens, 24 h; A253 (Others); read-out: AZD5991 24h GI50
Experimental: as §1

[19] = system: OE21; assay: Cell viability assay; format: cell-based; conditions: 24 h; OE21 (Others); read-out: AZD5991 24h GI50
Experimental: as §1

[20] = system: U2OS; assay: Cell viability assay; format: cell-based; conditions: Homo sapiens, 24 h; U2OS (Others); read-out: AZD5991 24h GI50
Experimental: as §1

[21] = system: MV411; assay: Caspase-3/7 activation assay; format: cell-based; conditions: Homo sapiens
Experimental: as §1

[22] = system: MOLM13; assay: Caspase-3/7 activation assay; format: cell-based; conditions: Homo sapiens, MOLM-13, 6 h
Experimental: as §1

[23] = system: Eμ-Myc lymphoma cells stably expressing human Bfl-1/A1; assay: Apoptosis induction in Eμ-Myc lymphoma cells; conditions: overexpression of Bfl-1/A1, 24 h
Excerpt: The retroviral plasmids to express human Bcl-2 family members in murine Eμ-Myc lymphoma cells are MSCV-hMCL-1-GFP, MSCV-hBCL-2-GFP, MSCV-hBCL-XL-GFP, MSCV-hBFL-1/A1-GFP, and MSCV-hBCL-w-GFP. To produce viruses, constructs of interest were co-transfected into HEK293T cells with the plasmid encoding the packaging viruses (p-CL-AMPHO provided by Phillip Darcy from Peter MacCallum Cancer Center, Melbourne, Australia) using standard calcium phosphate transient transfection technique. The retroviruses were harvested, filtered and used to infect target cells following standard procedures.
Samples were then centrifuged, washed twice with PBS and analyzed by flow cytometry in a BD LSRFortessa. FACSDiva software was used for data collection and FlowJo software for data analysis.

Cc1c2c(nn1C)CSCc1cc(n(C)n1)CSc1cc(c3ccccc3c1)OCCCc1c(C(=O)O)n(C)c3c-2c(Cl)ccc13 (atropisomer, axis not shown; (Ra)) [(Ra)-7]
tolerability, body weight ([1]; 30 mg kg^−1 i.v.): no significant body weight loss | antitumor response ([1]; single i.v. dose 30 mg kg^−1): TR observed | GI50 [2]: 133 nM | GI50 [3]: 714 nM | GI50 [4]: 27700 nM | GI50 [5]: 133 nM | GI50 [6]: 530 nM | GI50 [7]: 39 nM | GI50 [8]: 561 nM | GI50 [9]: 11 nM | GI50 [10]: 198 nM | GI50 [11]: 290 nM | GI50 [12]: 272 nM | GI50 [13]: 4240 nM | GI50 [14]: 250 nM | GI50 [15]: 21200 nM | GI50 [16]: 13500 nM | GI50 [17]: 22300 nM | GI50 [18]: > 30000 nM | GI50 [19]: > 30000 nM | GI50 [20]: 20600 nM | EC50 ([21]; MV4-11, 6 h, read-out: 6h caspase EC50, MV411, single agent): 56.3 nM | EC50 ([21]; MV4-11, 6 h, read-out: AZD5991 6h EC50, MV411 (AML), caspase 3/7 activation): 25 nM | EC50 ([21]; MV4-11, caspase activation, Mcl-1-dependent cell line, read-out: MV4-11, EC50): 24 nM | EC50 ([21]; MV4-11, mean of log transformed data, read-out: MV4-11 caspase pEC50 (converted)): 24 nM | EC50 ([22]; read-out: 6h caspase EC50, MOLM13, single agent): 108 nM | EC50 ([22]; read-out: AZD5991 6h EC50, MOLM13 (AML), caspase 3/7 activation): 63 nM | apoptosis-inducing activity [23]: blocked
